This note sets out measurements from patent publication US20110160196A1, “FACTOR XA INHIBITORS” (Millennium Pharmaceuticals, Inc., priority 2007, published 2011).

The structures appear in SMILES notation. Where only a bound is given, the exact number is not on record here.

The target of this assay is T1, human plasma protein factor Xa (Homo sapiens, UniProt P00742).
T1 construct: The human plasma protein factor Xa was purchased; purchased Haematologic Technologies (Essex Junction, Vt.); host or cells: human plasma
T1 sequence (P00742 235-488 limits assumed): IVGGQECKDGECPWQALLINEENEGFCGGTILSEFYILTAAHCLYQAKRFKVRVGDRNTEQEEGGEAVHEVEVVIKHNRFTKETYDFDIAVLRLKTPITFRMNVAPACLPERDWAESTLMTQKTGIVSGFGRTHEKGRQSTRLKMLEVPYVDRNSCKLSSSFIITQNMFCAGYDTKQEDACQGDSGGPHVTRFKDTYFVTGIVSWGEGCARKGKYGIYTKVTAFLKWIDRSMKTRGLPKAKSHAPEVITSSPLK
T1 sequence (P00742 41-179 partner limits assumed): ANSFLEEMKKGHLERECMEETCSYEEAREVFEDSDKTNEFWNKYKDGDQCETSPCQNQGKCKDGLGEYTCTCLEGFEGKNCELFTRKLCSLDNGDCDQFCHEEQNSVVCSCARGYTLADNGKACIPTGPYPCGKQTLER
Nature of the assay: Factor Xa IC50 determination (cleavage of paranitroanilide substrate S-2765). The format is biochemical. The settings on record: factor Xa 1 nM, S-2765 100 μM, Tris buffered saline pH 7.4, read at 405 nm. From the text: This example illustrates methods for evaluating the compounds of the invention, along with results obtained for such assays. The in vitro and in vivo human Factor Xa activities of the inventive compounds can be determined by various procedures known in the art, such as a test for their ability to inhibit the activity of human plasma Factor Xa. […] The IC50 value is the concentration (in nM) of the compound required to provide 50% inhibition of human Factor Xa proteolytic activity.
An in vitro assay for detecting and measuring inhibition activity against Factor Xa is as follows:
The substrate S-2765 (Z-D-Arg-Gly-Arg-pNA.HCl) was obtained from Diapharma (West Chester, Ohio).
The human plasma protein factor Xa was purchased from Haematologic Technologies (Essex Junction, Vt.).
All assays, which are performed in 96-well microtiter plates, measure proteolytic activity of the enzyme (factor Xa) by following cleavage of a paranitroanilide peptide substrate. The assay buffer used for proteolytic assays was Tris buffered saline (20 mM Tris, 150 mM NaCl, 5 mM CaCl2, 0.1% Bovine serum albumin (BSA), 5% Dimethly Sulfoxide (DMSO) pH 7.4). In a 96-well microtiter plate, inhibitor was serially diluted to give a range of final concentrations from 0.01 nM to 10 μM. Duplicate sets of wells were assayed and control wells without inhibitor were included. Enzyme was added to each well, (factor Xa concentration=1 nM), the plate was shaken for 5 seconds and then incubated for 5 minutes at room temperature. S-2765 was added (100 μM final) and the plate was shaken for 5 seconds (final volume in each well was 200 μl). The degree of substrate hydrolysis was measured at 405 nm on a Thermomax plate reader (Molecular Devices, Sunnyvale, Calif.) for 2 minutes. The initial velocities of substrate cleavage (mOD/min), for each range of inhibitor concentrations, were fitted to a four parameter equation using Softmax data analysis software. The parameter C, derived from the resulting curve-fit, corresponded to the concentration for half maximal inhibition (IC50).
The IC50 is the concentration needed to halve the response being measured. Compound `O=C1CN(c2cc(N3CCCCC3=O)ccc2-n2cc(CNC(=O)c3ccc(Cl)s3)nn2)CCN1` [Compound 159, 5-Chloro-N-((1-(2-(3-oxopiperazin-1-yl)-4-(2-oxopiperidin-1-yl)phenyl)-1H-1,2,3-triazol-4-yl)methyl)thiophene-2-carboxamide] had an IC50 of no more than 0.1 µM.

The compound `O=C(NCc1cn(-c2ccc(-n3ccccc3=O)cc2-c2ccncc2)nn1)c1ccc(Cl)s1` [Compound 125, 5-Chloro-N-((1-(4-(2-oxopyridin-1(2H)-yl)-2-(pyridin-4-yl)phenyl)-1H-1,2,3-triazol-4-yl)methyl)thiophene-2-carboxamide] returned a half-inhibitory concentration (IC50) of no more than 0.1 µM.

`NCCSc1cc(-n2ccccc2=O)ccc1-n1cc(CNC(=O)c2ccc(Cl)s2)nn1` [Compound 53, N-((1-(2-(2-Aminoethylthio)-4-(2-oxopyridin-1(2H)-yl)phenyl)-lH-1,2,3-triazol-4-yl)methyl)-5-chlorothiophene-2-carboxamide] registered a 50% inhibitory concentration (IC50) of no more than 0.1 µM.

`O=C(NCc1cn(-c2ccc(-n3ccccc3=O)cc2N2CCSCC2)nn1)c1ccc(Cl)s1` [Compound 10, 5-Chloro-N-((1-(4-(2-oxopyridin-1(2H)-yl)-2-thiomorpholinophenyl)-1H-1,2,3-triazol-4-yl)methyl)thiophene-2-carboxamide] showed an IC50 of no more than 0.1 µM.

As to `O=C(NCc1cn(-c2ccc(-n3ccccc3=O)cc2Oc2cccnc2)nn1)c1ccc(Cl)s1` [Compound 64, 5-Chloro-N-((1-(4-(2-oxopyridin-1(2H)-yl)-2-(pyridin-3-yloxy)phenyl)-1H-1,2,3-triazol-4-yl)methyl)thiophene-2-carboxamide], the IC50 was no more than 0.1 µM.

Compound `CN(C)CCOc1cc(-n2ccccc2=O)ccc1-n1cc(CNC(=O)c2ccc(Cl)s2)nn1` [Compound 85] registered a concentration for half-maximal inhibition (IC50) of no more than 0.1 µM.

Compound `O=C(NCc1cn(-c2ccc(-n3ccccc3=O)cc2C(=O)NCCCO)nn1)c1ccc(Cl)s1` [Compound 105, N-((1-(2-((3-Hydroxypropyl)carbamoyl)-4-(2-oxopyridin-1(2H)-yl)phenyl)-1H-1,2,3-triazol-4-yl)methyl)-5-chlorothiophene-2-carboxamide] displayed a concentration for half-maximal inhibition (IC50) of 0.1 to 0.5 µM.

Take `NCCNC(=O)c1cc(-n2ccccc2=O)ccc1-n1cc(CNC(=O)c2ccc(Cl)s2)nn1` [Compound 107, N-((1-(2-((2-Aminoethyl)carbamoyl)-4-(2-oxopyridin-1(2H)-yl)phenyl)-1H-1,2,3-triazol-4-yl)methyl)-5-chlorothiophene-2-carboxamide]: the IC50 is 0.1 to 0.5 µM.

With `O=C(NCc1cn(-c2ccc(-n3ccccc3=O)cc2-c2ccnc(O)c2)nn1)c1ccc(Cl)s1` [Compound 137, 5-Chloro-N-((1-(2-(2-hydroxypyridin-4-yl)-4-(2-oxopyridin-1(2H)-yl)phenyl)-1H-1,2,3-triazol-4-yl)methyl)thiophene-2-carboxamide], the IC50 was no more than 0.1 µM.

Consider `Cc1nc(COc2cc(-n3ccccc3=O)ccc2-n2cc(CNC(=O)c3ccc(Cl)s3)nn2)cs1` [Compound 172, 5-Chloro-N-((1-(2-((2-methylthiazol-4-yl)methoxy)-4-(2-oxopyridin-1(2H)-yl)phenyl)-1H-1,2,3-triazol-4-yl)methyl)thiophene-2-carboxamide], for which the IC50 was no more than 0.1 µM.

For `CN(CCO)c1cc(-n2ccccc2=O)ccc1-n1cc(CNC(=O)c2ccc(Cl)s2)nn1` [Compound 28, 5-Chloro-N-((1-(2-((2-hydroxyethyl)(methyl)amino)-4-(2-oxopyridin-1(2H)-yl)phenyl)-1H-1,2,3-triazol-4-yl)methyl)thiophene-2-carboxamide], the half-inhibitory concentration (IC50) was no more than 0.1 µM.

Compound `O=C(NCc1cn(-c2ccc(-n3ccccc3=O)cc2OCCCN2C(=O)c3ccccc3C2=O)nn1)c1ccc(Cl)s1` [Compound 67, 5-Chloro-N-((1-(2-(3-(1,3-dioxoisoindolin-2-yl)propoxy)-4-(2-oxopyridin-1(2H)-yl)phenyl)-1H-1,2,3-triazol-4-yl)methyl)thiophene-2-carboxamide] showed a 50% inhibitory concentration (IC50) of no more than 0.1 µM.

On to `CS(=O)(=O)c1cc(-n2ccccc2=O)ccc1-n1cc(CNC(=O)c2ccc(Cl)s2)nn1` [Compound 52, 5-Chloro-N-((1-(2-(methylsulfonyl)-4-(2-oxopyridin-1(2H)-yl)phenyl)-1H-1,2,3-triazol-4-yl)methyl)thiophene-2-carboxamide], for which the IC50 is no more than 0.1 µM.

`O=C(NCc1cn(-c2ccc(-n3ccccc3=O)cc2N2CCC[C@H](O)C2)nn1)c1ccc(Cl)s1` [Compound 23, 5-Chloro-N-((1-(2-((S)-3-hydroxypiperidin-1-yl)-4-(2-oxopyridin-1(2H)-yl)phenyl)-1H-1,2,3-triazol-4-yl)methyl)thiophene-2-carboxamide] registered an IC50 of no more than 0.1 µM.

Compound `O=C(NCc1cn(-c2ccc(-n3ccccc3=O)cc2NCCO)nn1)c1ccc(Cl)s1` [Compound 26, 5-Chloro-N-((1-(2-(2-hydroxyethylamino)-4-(2-oxopyridin-1(2H)-yl)phenyl)-1H-1,2,3-triazol-4-yl)methyl)thiophene-2-carboxamide] returned a 50% inhibitory concentration (IC50) of no more than 0.1 µM.

With `O=C(NCc1cn(-c2ccc(-n3ccccc3=O)cc2N2CCC[C@@H](O)C2)nn1)c1ccc(Cl)s1` [Compound 22, 5-Chloro-N-((1-(2-((R)-3-hydroxypiperidin-1-yl)-4-(2-oxopyridin-1(2H)-yl)phenyl)-1H-1,2,3-triazol-4-yl)methyl)thiophene-2-carboxamide], the IC50 was no more than 0.1 µM.

In turn, `COc1cc(-c2cc(-n3ccccc3=O)ccc2-n2cc(CNC(=O)c3ccc(Cl)s3)nn2)ccn1` [Compound 138, 5-Chloro-N-((1-(2-(2-methoxypyridin-4-yl)-4-(2-oxopyridin-1(2H)-yl)phenyl)-1H-1,2,3-triazol-4-yl)methyl)thiophene-2-carboxamide] registered an IC50 of no more than 0.1 µM.

`O=C(NCc1cn(-c2ccc(-n3ccccc3=O)cc2OCc2nccn2Cc2ncc[nH]2)nn1)c1ccc(Cl)s1` [Compound 178, N-((1-(2-((1-((1H-imidazol-2-yl)methyl)-1H-imidazol-2-yl)methoxy)-4-(2-oxopyridin-1(2H)-yl)phenyl)-1H-1,2,3-triazol-4-yl)methyl)-5-chlorothiophene-2-carboxamide]: the IC50 was no more than 0.1 µM.

With `CN(C)C(=O)c1cc(-n2ccccc2=O)ccc1-n1cc(CNC(=O)c2ccc(Cl)s2)nn1` [Compound 103, 5-Chloro-N-((1-(2-(dimethylcarbamoyl)-4-(2-oxopyridin-1(2H)-yl)phenyl)-1H-1,2,3-triazol-4-yl)methyl)thiophene-2-carboxamide], the IC50 is no more than 0.1 µM.

Consider `NCC[S+]([O-])c1cc(-n2ccccc2=O)ccc1-n1cc(CNC(=O)c2ccc(Cl)s2)nn1` (centres unmarked) [Compound 54, N-((1-(2-(2-Aminoethylsulfoxy)-4-(2-oxopyridin-1(2H)-yl)phenyl)-1H-1,2,3-triazol-4-yl)methyl)-5-chlorothiophene-2-carboxamide], for which the half-inhibitory concentration (IC50) was no more than 0.1 µM.

In turn, `O=C(NCc1cn(-c2ccc(-n3ccccc3=O)cc2OCc2ccccn2)nn1)c1ccc(Cl)s1` [Compound 169, 5-Chloro-N-((1-(4-(2-oxopyridin-1(2H)-yl)-2-(pyridin-2-ylmethoxy)phenyl)-1H-1,2,3-triazol-4-yl)methyl)thiophene-2-carboxamide] had an IC50 of no more than 0.1 µM.

With `O=C(NCc1cn(-c2ccc(-n3ccccc3=O)cc2[N+](=O)[O-])nn1)c1ccc(Cl)s1` [Compound 44, 5-ChIoro-N-((1-(2-nitro-4-(2-oxopyridin-1(2H)-yl)phenyl)-1H-1,2,3-triazol-4-yl)methyl)thiophene-2-carboxamide], the IC50 is no more than 0.1 µM.

In turn, `Nc1cc(-n2ccccc2=O)ccc1-n1cc(CNC(=O)c2ccc(Cl)s2)nn1` [Compound 45, N-((1-(2-Amino-4-(2-oxopyridin-1(2H)-yl)phenyl)-1H-1,2,3-triazol-4-yl)methyl)-5-chlorothiophene-2-carboxamide] returned an IC50 of no more than 0.1 µM.

The compound `O=C(NCc1cn(-c2ccc(-n3ccccc3=O)cc2OCCN2CCOCC2)nn1)c1ccc(Cl)s1` [Compound 90, 5-Chloro-N-((1-(2-(2-morpholinoethoxy)-4-(2-oxopyridin-1(2H)-yl)phenyl)-1H-1,2,3-triazol-4-yl)methyl)thiophene-2-carboxamide] had a half-inhibitory concentration (IC50) of no more than 0.1 µM.

Compound `O=C(NCc1cn(-c2ccc(-n3ccccc3=O)cc2CN2CCOCC2)nn1)c1ccc(Cl)s1` [Compound 160, 5-Chloro-N-((1-(2-(morpholinomethyl)-4-(2-oxopyridin-1(2H)-yl)phenyl)-1H-1,2,3-triazol-4-yl)methyl)thiophene-2-carboxamide] displayed an IC50 of no more than 0.1 µM.

Take `O=C(NCc1cn(-c2ccc(-n3ccccc3=O)cc2C(=O)Nc2ccncc2)nn1)c1ccc(Cl)s1` [Compound 118, 5-Chloro-N-((1-(4-(2-oxopyridin-1(2H)-yl)-2-(pyridin-4-ylcarbamoyl)phenyl)-1H-1,2,3-triazol-4-yl)methyl)thiophene-2-carboxamide]: the IC50 fell in the range of 0.1 to 0.5 µM.
